# Test results as given in paper PMC4145318, “Marinopyrrole Derivatives with Sulfide Spacers as Selective Disruptors of Mcl-1 Binding to Pro-Apoptotic Protein Bim” (Marine Drugs, 2014).
# Like-named read-outs stand apart in the source and are kept apart here.
# How the values were obtained:
# [1] = system: Mcl-1 levels in MDA-MB-468 cells; assay: Western blotting of Mcl-1 levels in intact breast cancer cells; details: 40 μM for 16 h
# Procedure: (§2) The cells were then processed for Western blotting exactly as described by us previously [16, 38]. […] We next evaluated the effects of the compounds on programed cell death (apoptosis) by determining their ability to induce cleaved caspase 3 in MDA-MB-468 cells.
# (§3) Treatment of the human breast cancer (MDA-MB-468) cells and Western blotting were performed using the methods described by us previously [16, 38].
# Bcl-xL/Bim [2] = molecular target: T1, Bcl-xL/Bim (Homo sapiens, UniProt Q07817); assay: ELISA, disruption of Bcl-xL binding to Bim; details: for IC50: ELISA; for fold more potent than 1 against Bcl-xL/Bim: ELISA IC50 vs. marinopyrrole A (1)
# T1 sequence (Q07817 whole entry): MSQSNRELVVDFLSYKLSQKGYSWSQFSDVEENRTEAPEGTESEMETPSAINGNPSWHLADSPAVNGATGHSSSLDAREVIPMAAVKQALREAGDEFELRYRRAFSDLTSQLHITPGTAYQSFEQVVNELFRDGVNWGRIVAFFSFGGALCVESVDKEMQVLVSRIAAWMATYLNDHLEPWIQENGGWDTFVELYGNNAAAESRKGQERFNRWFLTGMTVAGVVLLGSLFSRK
# Procedure: (§1) ELISAs were performed using a similar procedure as previously described. Briefly, 40 nM of biotinylated Bim BH3 peptide (Biomatik, Wilmington, DE, USA) in SuperBlock blocking buffer (Thermo Scientific Pierce, Rockford, IL, USA) was incubated in high-binding capacity streptavidin coated plates (Thermo Scientific Pierce, Rockford, IL, USA) for 2 h. Compounds were diluted in 120 µL of PBS containing 10 nM of GST-Mcl-1 or 10 nM GST-Bcl-xL in 1.5-mL tubes for 15 min. Wells were washed with wash buffer (PBS containing 0.05% Tween-20) and then 100 µL of the compound/GST-protein mixture was transferred to the Bim-containing wells. The plates were incubated for 2 h, and then, the wells were washed with wash buffer. HRP-conjugated anti-GST antibody (Bethyl Laboratories, Montgomery, TX, USA) was diluted 1:2000 in SuperBlock, and 100 µL were transferred to each well. The plate was incubated for 1 h, and then, the wells were washed with wash buffer followed by PBS. One hundred microliters of SureBlue TMB Microwell Peroxidase Substrate (VWR International, Radnor, PA, USA) was added to each well, and the plates were developed for 5–10 min. One hundred microliters of 1 N HCl was added to each well to stop the reaction, and the absorbance was read at 450 nm using a µQuant plate reader (Bio-Tek Instruments, Winooski, VT, USA).
# Mcl-1/Bim [3] = molecular target: T2, Mcl-1/Bim (Homo sapiens, UniProt Q07820); assay: ELISA, disruption of Mcl-1 binding to Bim; details: for IC50: ELISA; for fold more potent than 1 against Mcl-1/Bim: ELISA IC50 vs. marinopyrrole A (1)
# T2 sequence (Q07820 whole entry): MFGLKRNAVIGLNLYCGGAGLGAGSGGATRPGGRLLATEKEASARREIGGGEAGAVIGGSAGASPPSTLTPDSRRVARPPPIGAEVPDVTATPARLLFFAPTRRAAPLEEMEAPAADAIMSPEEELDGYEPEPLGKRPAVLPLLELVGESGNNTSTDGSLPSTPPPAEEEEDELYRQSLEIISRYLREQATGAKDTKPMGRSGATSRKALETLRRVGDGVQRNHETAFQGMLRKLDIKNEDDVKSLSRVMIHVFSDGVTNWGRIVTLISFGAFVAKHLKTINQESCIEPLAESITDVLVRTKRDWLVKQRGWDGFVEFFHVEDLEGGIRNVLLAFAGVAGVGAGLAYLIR
# Procedure: as §1
# Bcl-xL/Bim [4] = molecular target: T1, Bcl-xL/Bim; parameters: method as in PMID 24608970; details: ELISA; average ± SEM, n ≥ 3; data previously reported; cited from earlier work
# MDA-MB-468 cells [5] = assay: MTT assay; details: read-out: estimated IC50, inhibition of MDA-MB-468 cell growth
# Procedure: In addition, the ability of the compounds to inhibit tumor growth of MDA-MB-468 cells was determined by MTT assays. To this end, MDA-MB-468 cells were treated for 48 h with the compounds at 0, 0.5, 5 and 50 μM, and the cells were processed for MTT assays as described by us [39].
# MDA-MB-468 cells were treated and processed for MTT, DAPI nuclear staining and phase imaging of cells as described previously by us [39].
# [6] = aqueous; stated without method or reference; cited from earlier work
# Mcl-1/Bim [7] = molecular target: T2, Mcl-1/Bim; details: ELISA; average ± SEM, n ≥ 3; data previously reported; cited from earlier work
# MDA-MB-468 cells [8] = assay: Apoptosis induction (cleaved caspase 3, Western blotting); details: 40 μM for 16 h
# Procedure: as §2, §3
# Mcl-1 = molecular target: T3, Mcl-1 (Homo sapiens, UniProt Q07820); assay: Fluorescence-quenching direct binding assay (intrinsic Trp fluorescence); details: 2.5 μM His-tagged Mcl-1 (residues 172–327), pH 7.6
# T3 construct: Recombinant His-tagged Mcl-1 (residues 172–327) was purified as previously described; His; made in house
# T3 sequence (Q07820 172-327): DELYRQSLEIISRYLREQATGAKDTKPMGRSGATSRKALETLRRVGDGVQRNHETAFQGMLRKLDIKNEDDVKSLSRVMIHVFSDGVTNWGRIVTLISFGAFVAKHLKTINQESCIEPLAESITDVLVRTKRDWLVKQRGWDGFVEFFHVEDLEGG
# Procedure: To confirm direct binding of the compounds to Mcl-1, we have established a fluorescence-quenching assay based on the intrinsic Trp fluorescence of Mcl-1 [37].
# Recombinant His-tagged Mcl-1 (residues 172–327) was purified as previously described. Intrinsic Trp fluorescence of Mcl-1 was measured with a TECAN M1000 plate reader at excitation wavelength of 285 nm and emission wavelengths of 310–400 nm. Serial dilutions of compound 9 (starting from 20 μM) in 20 mM K-phosphate pH 7.6, […] was used to assay compound binding using 2.5 μM of Mcl-1. Each condition is run at triplicate and binding constants are calculated by nonlinear regression analysis of dose response curves using Prism software 6.0 (Graphpad, La Jolla, CA, USA). Control experiments included titration of DMSO solvent and fluorescence quenching of denatured Mcl-1 in the presence of compound.
# [9] = average ± SEM, n ≥ 3 (n = 2 where given), 10 nM GST-Bcl-xL, 40 nM biotinylated Bim BH3 peptide, read-out: Bcl-xL/Bim IC50
# [10] = average ± SEM, n ≥ 3, 10 nM GST-Mcl-1, 40 nM biotinylated Bim BH3 peptide, read-out: Mcl-1/Bim IC50
# [11] = read-out: IC50 Bcl-xL/Bim disruption (abstract)
# [12] = read-out: IC50 Mcl-1/Bim disruption (abstract)
Structure (SMILES),decrease in the levels of Mcl-1 [1],IC50 (Bcl-xL/Bim [2]; [9]) [µM],IC50 (Mcl-1/Bim [3]; [10]) [µM],IC50 (Bcl-xL/Bim [4]) [µM],"IC50 (MDA-MB-468 cells [5]; MTT, 48 h, compounds at 0, 0.5, 5 and 50 μM, estimated) [µM]",solubility [6],IC50 (Mcl-1/Bim [7]) [µM],induction of apoptosis (cleaved caspase 3) (MDA-MB-468 cells [8]),fold more potent than 1 against Mcl-1/Bim (Mcl-1/Bim [3]),"IC50 (MDA-MB-468 cells [5]; Homo sapiens, MDA-MB-468, 48 h) [µM]",fold more potent than 1 against Bcl-xL/Bim (Bcl-xL/Bim [2]) [fold],IC50 (Bcl-xL/Bim [2]; [11]) [µM],IC50 (Mcl-1/Bim [3]; [12]) [µM],Kd (Mcl-1) [µM],selectivity for Mcl-1/Bim over Bcl-xL/Bim (Mcl-1/Bim [3]; ratio of ELISA IC50 values) [fold]
"O=C(c1ccccc1O)c1[nH]c(Cl)c(Cl)c1-n1c(C(=O)c2ccccc2O)cc(Cl)c1Cl [Compound 1, marinopyrrole A, reference compound]",significant decrease,96.6,25.1 ± 4.7,16.4 ± 3.3,2,poor solubility,8.9 ± 1,potently induced apoptosis,–,–,–,–,–,–,–
CCOC(=O)CSc1ccc(C(=O)c2[nH]c(Cl)c(Cl)c2-n2c(C(=O)c3ccc(SCC(=O)OCC)cc3O)cc(Cl)c2Cl)c(O)c1 [Compound 3],highly potent,1.2 ± 0.2,1.8 ± 0.3,–,–,–,–,potently induced apoptosis,five,3,–,–,–,–,–
"O=C(c1ccc(SCc2ccccc2)cc1O)c1[nH]c(Cl)c(Cl)c1-n1c(C(=O)c2ccc(SCc3ccccc3)cc2O)cc(Cl)c1Cl [Compound 4, (4,4′,5,5′-Tetrachloro-1′H-1,3′-bipyrrole-2,2′-diyl)bis(((2-hydroxy-4-benzylthio)phenyl)methanone)]",highly potent,0.6 ± 0.2,0.7 ± 0.2,–,–,–,–,potently induced apoptosis,12.7 fold,28,27.3,0.7,0.6,–,–
COc1ccc(CSc2ccc(C(=O)c3[nH]c(Cl)c(Cl)c3-n3c(C(=O)c4ccc(SCc5ccc(OC)cc5)cc4O)cc(Cl)c3Cl)c(O)c2)cc1 [Compound 5],highly potent,0.6 ± 0.1,0.7 ± 0.1,–,–,–,–,potently induced apoptosis,12.7 fold,50,27.3,0.7,0.6,–,–
CCOC(=O)CS(=O)(=O)c1ccc(C(=O)c2[nH]c(Cl)c(Cl)c2-n2c(C(=O)c3ccc(S(=O)(=O)CC(=O)OCC)cc3O)cc(Cl)c2Cl)c(O)c1 [Compound 6],highly potent,> 100,37.3 ± 3.1,–,–,–,–,potently induced apoptosis,–,50,–,–,–,–,–
"O=C(c1ccc(S(=O)(=O)Cc2ccccc2)cc1O)c1[nH]c(Cl)c(Cl)c1-n1c(C(=O)c2ccc(S(=O)(=O)Cc3ccccc3)cc2O)cc(Cl)c1Cl [Compound 7, (4,4′,5,5′-Tetrachloro-1′H-1,3′-bipyrrole-2,2′-diyl)bis(((2-hydroxy-4-benzylsulfonyl)phenyl)methanone)]",–,69.3 ± 15.8,7.3 ± 1.4,–,–,–,–,potently induced apoptosis,–,20,–,–,–,–,–
COc1ccc(CS(=O)(=O)c2ccc(C(=O)c3[nH]c(Cl)c(Cl)c3-n3c(C(=O)c4ccc(S(=O)(=O)Cc5ccc(OC)cc5)cc4O)cc(Cl)c3Cl)c(O)c2)cc1 [Compound 8],moderately active,> 100,17.4 ± 3.1,–,–,–,–,weak,–,50,–,–,–,–,–
O=C(O)CSc1ccc(C(=O)c2[nH]c(Cl)c(Cl)c2-n2c(C(=O)c3ccc(SCC(=O)O)cc3O)cc(Cl)c2Cl)c(O)c1 [Compound 9],moderately active,> 100,6.1 ± 1.3,–,–,–,–,weak,–,29,–,–,–,2.7,16.4
O=C(O)CS(=O)(=O)c1ccc(C(=O)c2[nH]c(Cl)c(Cl)c2-n2c(C(=O)c3ccc(S(=O)(=O)CC(=O)O)cc3O)cc(Cl)c2Cl)c(O)c1 [Compound 10],highly potent,> 100,63 ± 5.4,–,–,–,–,potently induced apoptosis,–,20,–,–,–,–,–
CCOC(=O)c1cc(Cl)c(Cl)n1-c1c(C(=O)c2ccccc2O)[nH]c(Cl)c1Cl [Compound 11],highly potent,–,–,–,–,–,–,potently induced apoptosis,–,2,–,–,–,–,–
CCOC(=O)c1[nH]c(Cl)c(Cl)c1-n1c(C(=O)c2ccccc2O)cc(Cl)c1Cl [Compound 12],moderately active,17.6 ± 4.5,11.5 ± 1.9,–,–,–,–,weak,–,16,–,–,–,–,–
